Experimental data: article PMC9038752, “Molecular mechanisms of bifunctional vitamin D receptor agonist-histone deacetylase inhibitor hybrid molecules in triple-negative breast cancer” (Scientific Reports, 2022)
“Also recorded” adds a separate entry of the source.

How the values were obtained:
[1] = system: H3K9 and H3K27 acetylation (class I HDACs); experiment: Western blotting of H3K9 and H3K27 acetylation in 4TO7 cells; format: cell-based, mouse; details: 10^–5 M, 6 h, western blot
Method: (§1) The hybrids were assessed to determine their HDACi and VDR agonist activity as well as their antiproliferative properties relative to DK-406. HDACi activity was assessed in vitro using an acetylated lysine substrate that releases a fluorescent reporter upon HDACi deacetylation and subsequent trypsin digestion. Increasing sidechain length of pyrimidine hybrids enhanced the potency of HDAC6 inhibition, with several compounds inhibiting HDAC6 with a sub-micromolar IC50, similar to that of DK-406 (Fig. 4a). […] Next, we analyzed the effects of compounds on levels of H3K9 and H3K27 acetylation in 4TO7 cells, which are controlled by class I HDACs[29],[30]. […] We also tested the capacity of analogues to induce tubulin acetylation, controlled by class II enzyme HDAC6[32], in 4TO7 cells. […]
(§2) Figure 4 (a) Results of in vitro assays for inhibition of purified HDAC2 and HDAC6 by DK-406 and heterocyclic hybrids as measured by inhibition of deacetylation of a fluorometric substrate (see Methods for details). […]
(§3) After treatments, 4T07 cells were solubilized in Lysis Buffer (20 mM Tris, pH 8, 150 mM NaCl, 1% Triton X-100, 3,5 mM SDS, 13 mM deoxycholic acid) and proteins extracted were separated on a 4–15% Tris/Glycine/SDS gel (BIO RAD). […] Signal was detected using Clarity ECL chemiluminescent substrates (Bio-Rad) and ChemiDoc Imaging System from the same company was used to quantify the intensity of bands. […]

VDR = biological target: T1, VDR (Mus musculus, UniProt P48281); experiment: Cyp24a1 induction assay for VDR agonism in 4T1 cells; format: cell-based; details: 24 h
T1 construct: endogenous in cells; host or cells: 4TO7 and 4T1 mouse triple-negative breast cancer cells
T1 sequence (P48281 1-422): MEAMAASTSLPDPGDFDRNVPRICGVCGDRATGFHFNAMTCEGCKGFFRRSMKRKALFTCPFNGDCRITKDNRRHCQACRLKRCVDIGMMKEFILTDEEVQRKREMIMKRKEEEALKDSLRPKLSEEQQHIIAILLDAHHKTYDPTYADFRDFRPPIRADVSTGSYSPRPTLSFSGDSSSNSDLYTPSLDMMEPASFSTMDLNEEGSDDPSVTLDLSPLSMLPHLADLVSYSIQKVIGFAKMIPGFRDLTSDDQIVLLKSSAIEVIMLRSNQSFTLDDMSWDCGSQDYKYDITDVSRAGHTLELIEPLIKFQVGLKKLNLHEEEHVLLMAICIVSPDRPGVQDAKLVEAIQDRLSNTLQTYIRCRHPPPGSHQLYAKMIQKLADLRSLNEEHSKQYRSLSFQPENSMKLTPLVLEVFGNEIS
Method: Figure 5 (a) and (b) Analysis of induced Cyp24a1 expression in 4TO7 (a) and 4T1 (b) cells to test for VDR agonism of DK-406 and heterocyclic analogues after 24 h treatment. c-e. Analysis of the cytotoxicity of hybrid compounds after 24 h using the MTGlo assay (see Methods for details) in 4TO7 (c), 4T1 (d) and MDA-MB-231 (e) cells. […] Each condition was compared to control. *: p ≤ 0.05, **: p ≤ 0.01, ***: p ≤ 0.001, ****: p ≤ 0.0001, ns: not significant.
As previously, we were interested in studying the efficacy of hybrids in models of TNBC. We used the 4T1 cell line[20] as well as the related TNBC cell line 4TO7, which was derived from the same mouse tumor as 4T1 cells in Balb/c mice[33]. 4TO7 cells readily form primary tumors. […] These lines also have the advantage that anti-tumor efficacy studies can be performed in Balb/c mice, which have intact immune systems. Compounds were initially tested for VDR agonist activity in 4TO7 cells by screening induction of the VDR target gene Cyp24a1. […] The pyridyl hybrids were then tested for efficacy in vitro in 4TO7 and 4T1 cells using an MT-Glo assay in which only viable cells can convert a precursor into a substrate for a luciferase bioluminescence assay (Fig. 5c,d; see Methods for details).
Mouse 4T07 cells and 4T01 cells were cultured in DMEM (319–005-CL; WISENT Inc.) supplemented with 10% heat-inactivated FBS. […]

[2] = system: tubulin acetylation (HDAC6); experiment: Western blotting of tubulin acetylation in 4TO7 cells; format: cell-based, mouse; details: 6 h, western blot
Method: as §1, §2, §3

Row | Compound | H3 acetylation at K9 and K27 [1] | VDR agonist activity (Cyp24a1 induction) (VDR) | tubulin acetylation ([2]; 10^–6 M) | tubulin acetylation ([2]; 10^–5 M)
1 | CCC(CC)(c1ccc(OCCCCCC(=O)NO)cc1)c1ccc(OCC(O)C(C)(C)C)c(C)n1 (stereo not drawn) [AM-193] | enhanced H3 acetylation, although to a lesser degree than DK-406 | full agonists; also recorded: potency of AM-193 was confirmed | consistently induced tubulin acetylation | 
2 | CCC(CC)(c1ccc(C(=O)NCCCCCC(=O)NO)cc1)c1ccc(OCC(O)C(C)(C)C)c(C)c1 (stereo not drawn) [DK-406] | induced H3 acetylation at K9 and K27 | full agonists |  | consistently induced tubulin acetylation
